# Reference: patent EP0429304A2, “Pyridone-carboxylic acid derivatives and their use as veterinary medicines” (SHIONOGI SEIYAKU KABUSHIKI KAISHA trading under the name of …, priority 1989, dated 1991)
# System: TS-resistant MG
# Assay: Experimental MG infection to chicken, through bait
# Type: in vivo
# Conditions: 9-days chicken; for Number of infected fowl/Number of fowl tested: 6.6 x 10³ CFU/fowl, dissection 6th day after inoculation; for Number of fowl having air sack lesions / Infectious index Left air sack + / Infectious index Left air sack ++ / Infectious index Left air sack +++ / Infectious index Left air sack - / Infectious index Right air sack + / Infectious index Right air sack ++ / Infectious index Right air sack +++ / Infectious index Right air sack -: 1.8 x 10³ CFU/fowl; for Infectious index Left air sack + / Infectious index Left air sack ++ / Infectious index Left air sack +++ / Infectious index Left air sack - / Infectious index Right air sack + / Infectious index Right air sack ++ / Infectious index Right air sack +++ / Infectious index Right air sack -: count of fowl
compound,measurement,setting,value
Cl.Nc1c(F)c(N2C[C@@H]3CC[C@@H](N)[C@@H]3C2)c(F)c2c1c(=O)c(C(=O)O)cn2C1CC1 (relative stereo) [I-16],Number of infected fowl/Number of fowl tested,bait 3.13 ppm/Day,2/7
same,Number of fowl having air sack lesions,bait 15.6 ppm/Day,3
same,Number of fowl having air sack lesions,bait 31.3 ppm/Day,3
same,Number of fowl having air sack lesions,bait 62.5 ppm/Day,0
same,Number of infected fowl/Number of fowl tested,bait 62.5 ppm/Day,0/7
same,Number of infected fowl/Number of fowl tested,bait 125 ppm/Day,0/7
same,Infectious index Left air sack +,bait 15.6 ppm/Day,0
same,Infectious index Left air sack ++,bait 15.6 ppm/Day,0
same,Infectious index Left air sack +++,bait 15.6 ppm/Day,0
same,Infectious index Left air sack -,bait 15.6 ppm/Day,5
same,Infectious index Right air sack +,bait 15.6 ppm/Day,1
same,Infectious index Right air sack ++,bait 15.6 ppm/Day,2
same,Infectious index Right air sack +++,bait 15.6 ppm/Day,0
same,Infectious index Right air sack -,bait 15.6 ppm/Day,2
same,Infectious index Left air sack +,bait 31.3 ppm/Day,0
same,Infectious index Left air sack ++,bait 31.3 ppm/Day,0
same,Infectious index Left air sack +++,bait 31.3 ppm/Day,0
same,Infectious index Left air sack -,bait 31.3 ppm/Day,5
same,Infectious index Right air sack +,bait 31.3 ppm/Day,1
same,Infectious index Right air sack ++,bait 31.3 ppm/Day,2
same,Infectious index Right air sack +++,bait 31.3 ppm/Day,0
same,Infectious index Right air sack -,bait 31.3 ppm/Day,2
same,Infectious index Left air sack +,bait 62.5 ppm/Day,0
same,Infectious index Left air sack ++,bait 62.5 ppm/Day,0
same,Infectious index Left air sack +++,bait 62.5 ppm/Day,0
same,Infectious index Left air sack -,bait 62.5 ppm/Day,5
same,Infectious index Right air sack +,bait 62.5 ppm/Day,0
same,Infectious index Right air sack ++,bait 62.5 ppm/Day,0
same,Infectious index Right air sack +++,bait 62.5 ppm/Day,0
same,Infectious index Right air sack -,bait 62.5 ppm/Day,5
